Laboratory results taken from PMC8252737 (Angewandte Chemie (International Ed. in English), 2021).

What was measured:
EV D68 3C protease [1] = biological target: T1, EV D68 3C protease (Enterovirus D68, UniProt A1E4A3); assay: Tryptic digest and MS of protein-inhibitor complex; assay type: binding; settings: trypsin digest of protein-inhibitor complex
T1 sequence (A1E4A3 1549-1731): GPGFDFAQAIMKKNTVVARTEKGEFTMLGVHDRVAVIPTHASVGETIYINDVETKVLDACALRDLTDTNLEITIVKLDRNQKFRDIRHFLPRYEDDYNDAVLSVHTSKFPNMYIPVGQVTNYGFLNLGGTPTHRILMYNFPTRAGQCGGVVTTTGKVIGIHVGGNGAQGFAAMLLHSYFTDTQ

EV D68 3C protease [2] = biological target: T1, EV D68 3C protease; assay: Fragment ligation screening / FRET assay of fragments and aldehyde 1; assay type: biochemical; settings: fragment 19 μM + aldehyde 1 19 μM, 2 h incubation, p<0.05

CCOC(=O)C=Cc1cccc(C(N)=O)c1 [Compound 13, O‐ethyl 3‐carbamoyl‐cinnamoyl ester]
Alkylation of the 13mer peptide containing Cys147 (EV D68 3C protease [1]): complete alkylation

CCOC(=O)CC#N [Compound F1, O‐ethyl 2‐cyano‐acetate]
Inhibition of the protease in combination with aldehyde 1 compared to the aldehyde alone (EV D68 3C protease [2]): significantly increased inhibition

CC(=O)CC#N [Compound F4, 3‐oxo‐butane nitrile]
Inhibition of the protease in combination with aldehyde 1 compared to the aldehyde alone (EV D68 3C protease [2]): significantly increased inhibition
